Among the targets are D(2) dopamine receptor (Rattus norvegicus, UniProt P61169); D(1A) dopamine receptor (Rattus norvegicus, UniProt P18901); Histamine H1 receptor (Rattus norvegicus, UniProt P31390).
In test [1] the target is 5-hydroxytryptamine receptor 2A (Rattus norvegicus, UniProt P14842).
The target of test [2] is 5-hydroxytryptamine 1D receptor (Bos taurus, UniProt Q8MI13).
In test [3] the target is 5-hydroxytryptamine receptor 1B (Rattus norvegicus, UniProt P28564).
Test [4] deals with T1, Alpha-1A adrenergic receptor (Rattus norvegicus, UniProt P43140).
T1 sequence (P43140 whole entry): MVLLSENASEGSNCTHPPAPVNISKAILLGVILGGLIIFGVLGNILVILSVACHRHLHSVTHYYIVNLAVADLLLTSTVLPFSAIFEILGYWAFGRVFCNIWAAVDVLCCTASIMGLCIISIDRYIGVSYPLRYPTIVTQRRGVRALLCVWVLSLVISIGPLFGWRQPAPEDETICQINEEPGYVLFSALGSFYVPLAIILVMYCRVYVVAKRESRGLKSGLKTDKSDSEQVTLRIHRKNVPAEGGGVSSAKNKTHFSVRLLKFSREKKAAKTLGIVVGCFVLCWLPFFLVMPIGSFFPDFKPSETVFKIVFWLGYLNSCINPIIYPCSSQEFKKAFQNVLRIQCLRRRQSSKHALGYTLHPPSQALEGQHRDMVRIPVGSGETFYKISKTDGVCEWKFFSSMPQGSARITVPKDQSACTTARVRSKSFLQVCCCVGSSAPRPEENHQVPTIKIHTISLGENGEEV

Test [5] has as its target Sodium channel protein type 10 subunit alpha (Rattus norvegicus, UniProt Q62968).
The target of test [6] is T2, 5-hydroxytryptamine receptor 2C (Sus scrofa, UniProt G7ZKZ7).
T2 sequence (G7ZKZ7 whole entry): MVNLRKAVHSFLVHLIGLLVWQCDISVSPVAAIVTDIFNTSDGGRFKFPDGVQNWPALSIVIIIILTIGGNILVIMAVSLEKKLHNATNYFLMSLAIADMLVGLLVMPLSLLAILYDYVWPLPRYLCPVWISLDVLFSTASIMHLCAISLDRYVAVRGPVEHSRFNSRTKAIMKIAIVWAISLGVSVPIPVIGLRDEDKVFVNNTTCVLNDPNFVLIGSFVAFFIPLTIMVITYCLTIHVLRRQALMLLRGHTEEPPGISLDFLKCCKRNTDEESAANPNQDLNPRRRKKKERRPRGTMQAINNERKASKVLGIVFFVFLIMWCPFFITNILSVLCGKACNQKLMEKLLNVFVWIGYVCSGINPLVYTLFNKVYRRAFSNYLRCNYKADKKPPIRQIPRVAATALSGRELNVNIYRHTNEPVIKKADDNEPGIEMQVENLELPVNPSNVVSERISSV

The target of test [7] is T3, Alpha-2C adrenergic receptor (Rattus norvegicus, UniProt P22086).
T3 sequence (P22086 whole entry): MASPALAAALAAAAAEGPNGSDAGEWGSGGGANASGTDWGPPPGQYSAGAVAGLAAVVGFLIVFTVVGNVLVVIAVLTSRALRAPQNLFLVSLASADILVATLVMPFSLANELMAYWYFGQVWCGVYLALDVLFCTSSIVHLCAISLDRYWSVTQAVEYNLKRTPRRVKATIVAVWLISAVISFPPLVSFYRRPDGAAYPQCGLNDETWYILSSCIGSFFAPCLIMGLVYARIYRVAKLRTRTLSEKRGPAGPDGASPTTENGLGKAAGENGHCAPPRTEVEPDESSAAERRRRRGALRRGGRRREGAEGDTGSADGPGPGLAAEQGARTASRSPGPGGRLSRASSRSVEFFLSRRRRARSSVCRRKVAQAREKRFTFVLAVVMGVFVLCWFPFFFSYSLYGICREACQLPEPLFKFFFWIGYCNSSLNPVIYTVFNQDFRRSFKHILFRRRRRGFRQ

For one molecule, Ki results are on record in BindingDB's records for PubMed 1501121 (Sanofi Recherche, 1992).

Each structure is given as a SMILES string. A value given as a limit tells only on which side of the number the result lay.

Chain of 5-hydroxytryptamine receptor 2A (P14842 whole entry): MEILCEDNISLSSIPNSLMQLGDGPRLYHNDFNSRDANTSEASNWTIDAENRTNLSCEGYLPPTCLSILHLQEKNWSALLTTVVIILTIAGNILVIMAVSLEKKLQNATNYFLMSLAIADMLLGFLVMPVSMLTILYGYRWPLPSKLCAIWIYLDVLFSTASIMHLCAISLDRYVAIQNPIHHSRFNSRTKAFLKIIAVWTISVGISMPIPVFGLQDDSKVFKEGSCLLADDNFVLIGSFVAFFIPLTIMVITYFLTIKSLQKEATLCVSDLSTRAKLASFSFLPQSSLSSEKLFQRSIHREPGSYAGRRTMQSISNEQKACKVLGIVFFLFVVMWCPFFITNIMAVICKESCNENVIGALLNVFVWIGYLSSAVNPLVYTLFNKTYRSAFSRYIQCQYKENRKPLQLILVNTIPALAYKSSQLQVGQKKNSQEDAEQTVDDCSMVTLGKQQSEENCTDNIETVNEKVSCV
Chain of D(1A) dopamine receptor (P18901 whole entry): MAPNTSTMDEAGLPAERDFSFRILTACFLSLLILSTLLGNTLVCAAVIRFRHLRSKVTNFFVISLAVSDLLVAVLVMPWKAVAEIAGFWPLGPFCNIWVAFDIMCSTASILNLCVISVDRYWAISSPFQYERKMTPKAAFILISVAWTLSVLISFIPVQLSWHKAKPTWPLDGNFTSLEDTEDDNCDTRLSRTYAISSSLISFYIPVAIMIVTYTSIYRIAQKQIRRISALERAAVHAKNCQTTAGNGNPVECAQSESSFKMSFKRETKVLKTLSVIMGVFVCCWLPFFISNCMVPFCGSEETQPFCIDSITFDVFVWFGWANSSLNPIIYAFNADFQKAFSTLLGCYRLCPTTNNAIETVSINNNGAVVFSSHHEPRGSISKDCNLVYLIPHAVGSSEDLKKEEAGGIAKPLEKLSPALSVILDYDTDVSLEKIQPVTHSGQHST
Chain of D(2) dopamine receptor (P61169 whole entry): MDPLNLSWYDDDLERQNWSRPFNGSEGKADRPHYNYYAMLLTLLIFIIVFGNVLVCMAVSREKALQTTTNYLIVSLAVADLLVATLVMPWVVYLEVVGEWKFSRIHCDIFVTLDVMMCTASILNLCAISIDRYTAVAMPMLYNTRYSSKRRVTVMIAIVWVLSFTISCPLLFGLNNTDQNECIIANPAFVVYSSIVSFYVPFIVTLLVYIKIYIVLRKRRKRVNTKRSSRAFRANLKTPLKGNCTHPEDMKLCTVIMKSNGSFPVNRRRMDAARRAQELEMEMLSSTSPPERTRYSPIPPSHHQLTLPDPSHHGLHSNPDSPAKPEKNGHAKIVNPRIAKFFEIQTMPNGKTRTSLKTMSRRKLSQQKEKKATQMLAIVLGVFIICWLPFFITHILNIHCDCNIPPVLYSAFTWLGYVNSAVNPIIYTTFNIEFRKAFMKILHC
Chain of 5-hydroxytryptamine receptor 1B (P28564 whole entry): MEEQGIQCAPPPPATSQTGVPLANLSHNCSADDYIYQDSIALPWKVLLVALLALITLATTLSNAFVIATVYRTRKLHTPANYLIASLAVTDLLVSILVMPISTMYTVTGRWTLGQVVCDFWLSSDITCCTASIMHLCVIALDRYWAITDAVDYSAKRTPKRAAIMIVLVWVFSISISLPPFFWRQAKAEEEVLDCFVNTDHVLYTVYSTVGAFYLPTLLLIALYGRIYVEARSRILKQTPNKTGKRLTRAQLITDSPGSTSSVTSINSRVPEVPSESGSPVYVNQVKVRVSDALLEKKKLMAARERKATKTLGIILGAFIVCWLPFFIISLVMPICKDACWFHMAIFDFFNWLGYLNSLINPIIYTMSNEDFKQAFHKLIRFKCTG
Chain of Histamine H1 receptor (P31390 whole entry): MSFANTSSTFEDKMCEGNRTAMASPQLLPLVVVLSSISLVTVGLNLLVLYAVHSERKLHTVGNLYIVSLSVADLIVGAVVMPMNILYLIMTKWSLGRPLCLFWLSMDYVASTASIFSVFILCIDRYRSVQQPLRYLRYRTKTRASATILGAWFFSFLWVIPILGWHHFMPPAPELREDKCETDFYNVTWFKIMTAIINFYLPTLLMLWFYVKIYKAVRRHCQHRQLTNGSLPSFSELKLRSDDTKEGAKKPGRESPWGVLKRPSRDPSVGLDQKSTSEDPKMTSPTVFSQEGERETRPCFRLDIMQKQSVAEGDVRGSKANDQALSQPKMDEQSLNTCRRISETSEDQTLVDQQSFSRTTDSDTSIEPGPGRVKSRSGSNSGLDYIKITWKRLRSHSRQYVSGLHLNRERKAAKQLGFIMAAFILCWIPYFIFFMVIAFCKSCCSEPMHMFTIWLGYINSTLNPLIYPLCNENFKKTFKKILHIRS
Chain of 5-hydroxytryptamine 1D receptor (Q8MI13 whole entry): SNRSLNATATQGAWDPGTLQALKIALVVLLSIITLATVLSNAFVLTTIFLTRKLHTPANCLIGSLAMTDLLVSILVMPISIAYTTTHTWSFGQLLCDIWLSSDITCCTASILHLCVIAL
Chain of Sodium channel protein type 10 subunit alpha (Q62968 whole entry): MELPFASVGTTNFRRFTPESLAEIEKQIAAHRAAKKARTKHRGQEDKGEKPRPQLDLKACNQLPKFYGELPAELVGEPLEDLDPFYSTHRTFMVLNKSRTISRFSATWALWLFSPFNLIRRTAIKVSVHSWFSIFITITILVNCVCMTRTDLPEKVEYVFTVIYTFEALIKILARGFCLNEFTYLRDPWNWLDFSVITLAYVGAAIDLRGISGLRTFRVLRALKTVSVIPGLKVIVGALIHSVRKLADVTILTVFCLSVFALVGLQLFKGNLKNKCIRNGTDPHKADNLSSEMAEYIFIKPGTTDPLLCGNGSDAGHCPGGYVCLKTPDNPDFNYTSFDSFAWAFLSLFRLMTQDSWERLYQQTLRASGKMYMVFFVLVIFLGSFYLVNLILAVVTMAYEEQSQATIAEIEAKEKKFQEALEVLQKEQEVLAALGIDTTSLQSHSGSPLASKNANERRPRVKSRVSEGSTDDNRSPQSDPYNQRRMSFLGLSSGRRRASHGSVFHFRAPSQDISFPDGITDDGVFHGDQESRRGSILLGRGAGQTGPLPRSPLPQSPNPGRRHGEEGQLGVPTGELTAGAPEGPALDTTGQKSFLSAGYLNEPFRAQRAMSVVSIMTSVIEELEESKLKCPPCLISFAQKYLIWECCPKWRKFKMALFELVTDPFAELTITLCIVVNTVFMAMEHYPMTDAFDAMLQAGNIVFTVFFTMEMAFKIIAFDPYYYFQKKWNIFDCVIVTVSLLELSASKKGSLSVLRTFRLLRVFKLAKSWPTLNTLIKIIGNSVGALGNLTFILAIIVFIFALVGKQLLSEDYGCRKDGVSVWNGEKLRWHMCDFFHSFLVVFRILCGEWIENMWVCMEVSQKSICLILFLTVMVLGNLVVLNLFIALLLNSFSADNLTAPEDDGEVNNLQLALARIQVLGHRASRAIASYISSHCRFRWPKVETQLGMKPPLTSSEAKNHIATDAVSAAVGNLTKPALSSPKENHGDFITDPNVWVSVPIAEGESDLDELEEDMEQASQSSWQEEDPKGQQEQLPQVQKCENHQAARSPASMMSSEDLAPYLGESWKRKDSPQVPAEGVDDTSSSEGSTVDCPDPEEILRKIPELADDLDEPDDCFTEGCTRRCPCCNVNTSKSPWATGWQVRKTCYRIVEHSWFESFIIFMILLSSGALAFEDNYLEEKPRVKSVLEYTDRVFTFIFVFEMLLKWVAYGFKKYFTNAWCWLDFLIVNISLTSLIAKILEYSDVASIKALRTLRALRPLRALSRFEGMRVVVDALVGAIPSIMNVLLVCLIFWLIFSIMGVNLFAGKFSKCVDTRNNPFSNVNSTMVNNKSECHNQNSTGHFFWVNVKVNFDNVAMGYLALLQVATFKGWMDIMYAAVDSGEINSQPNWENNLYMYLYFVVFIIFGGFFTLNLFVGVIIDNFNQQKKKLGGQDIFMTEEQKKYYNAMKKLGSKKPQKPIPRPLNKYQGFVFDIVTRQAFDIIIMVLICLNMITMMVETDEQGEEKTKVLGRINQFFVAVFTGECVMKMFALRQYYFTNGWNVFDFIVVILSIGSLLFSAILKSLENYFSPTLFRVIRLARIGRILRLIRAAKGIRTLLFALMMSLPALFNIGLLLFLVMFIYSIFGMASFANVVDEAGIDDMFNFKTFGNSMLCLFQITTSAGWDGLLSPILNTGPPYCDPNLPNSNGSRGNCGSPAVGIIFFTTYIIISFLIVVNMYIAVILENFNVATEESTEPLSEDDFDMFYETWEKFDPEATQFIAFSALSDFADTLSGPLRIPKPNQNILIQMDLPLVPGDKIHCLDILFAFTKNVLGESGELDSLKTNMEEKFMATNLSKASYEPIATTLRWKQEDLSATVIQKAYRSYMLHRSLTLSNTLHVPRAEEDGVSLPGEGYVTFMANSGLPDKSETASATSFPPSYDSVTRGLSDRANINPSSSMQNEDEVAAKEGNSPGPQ

Usually Ki stands for the equilibrium dissociation constant of an inhibitor or competing ligand from its target. Take `CN(C)CCON=C(C=Cc1ccc(O)cc1)c1ccccc1F` [NSC_6438382]: the Ki in test [1] was 0.0058 µM; at D(2) dopamine receptor, more than 10 µM; in [2] it was more than 10 µM; in test [3], more than 10 µM; in test [4], 3.4 µM; in test [5], more than 10 µM. In addition, the Ki in test [6] was found to be 0.12 µM; in [7], 1 µM; on D(1A) dopamine receptor, 9 µM; at Histamine H1 receptor it was 5 µM.
